Values joined by “and” are separate entries in the source; they are usually repeats but may differ in a detail not shown here. Equal entries are not always repeated.
Tests used:
KRAS WT = KRAS WT (Homo sapiens, UniProt P01116+P62937); experiment: Disruption of BRAF RBD interaction with Ras (FRET / MOA assay, with Cyclophilin A); assay type: biochemical; settings: KRAS WT; read-out: KRAS WT FRET data IC50
How it was run: (§1)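 Biochemical TR-FRET disruption assay: nucleotide-loaded K-Ras with Cyclophilin A and a BRAF RBD construct, compound titrated over 10 points from 30 μM (final).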

KRAS G12S = KRAS G12S (Homo sapiens, UniProt P01116+P62937, G12S); experiment: as above; assay type: biochemical; settings: read-out: KRAS G12S FRET data, IC50
Sequence of KRAS G12S (P01116 1-169 isoform P01116-2 G12S limits assumed): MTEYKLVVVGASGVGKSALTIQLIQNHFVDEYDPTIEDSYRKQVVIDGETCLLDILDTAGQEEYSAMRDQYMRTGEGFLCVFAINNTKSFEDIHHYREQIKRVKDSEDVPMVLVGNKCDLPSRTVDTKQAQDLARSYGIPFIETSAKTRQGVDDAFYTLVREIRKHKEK
Sequence of KRAS G12S (P62937 whole entry): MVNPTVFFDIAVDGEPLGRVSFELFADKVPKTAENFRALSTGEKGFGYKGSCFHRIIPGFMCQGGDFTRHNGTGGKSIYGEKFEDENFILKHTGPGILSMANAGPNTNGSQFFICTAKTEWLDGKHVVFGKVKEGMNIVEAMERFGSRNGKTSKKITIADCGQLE
How it was run: as §1

KRAS G12D = KRAS G12D (Homo sapiens, UniProt P01116+P62937, G12D); experiment: as above; assay type: biochemical; settings: read-out: KRAS G12D FRET data, IC50
Sequence of KRAS G12D (P01116 1-169 isoform P01116-2 G12D limits assumed): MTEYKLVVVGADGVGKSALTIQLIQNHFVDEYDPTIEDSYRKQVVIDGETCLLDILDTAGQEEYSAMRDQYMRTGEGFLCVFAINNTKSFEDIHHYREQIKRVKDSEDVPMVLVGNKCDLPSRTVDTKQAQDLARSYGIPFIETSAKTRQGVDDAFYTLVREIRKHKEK
Sequence of KRAS G12D (P62937 whole entry): as the sequence (P62937 whole entry) above
How it was run: as §1

KRAS G13D = KRAS G13D (Homo sapiens, UniProt P01116+P62937, G13D); experiment: as above; assay type: biochemical; settings: KRAS G13D; read-out: KRAS G13D FRET data IC50
Sequence of KRAS G13D (P01116 1-169 isoform P01116-2 G13D limits assumed): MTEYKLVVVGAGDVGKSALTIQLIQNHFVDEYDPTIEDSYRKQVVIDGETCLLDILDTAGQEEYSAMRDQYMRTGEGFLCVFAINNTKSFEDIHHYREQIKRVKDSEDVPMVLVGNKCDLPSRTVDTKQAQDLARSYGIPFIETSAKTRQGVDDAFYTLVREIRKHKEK
Sequence of KRAS G13D (P62937 whole entry): as the sequence (P62937 whole entry) above
How it was run: as §1

KRAS G12C = KRAS G12C (Homo sapiens, UniProt P01116+P62937, G12C); experiment: as above; assay type: biochemical; settings: read-out: KRAS G12C FRET data, IC50
Sequence of KRAS G12C (P01116 1-169 isoform P01116-2 G12C): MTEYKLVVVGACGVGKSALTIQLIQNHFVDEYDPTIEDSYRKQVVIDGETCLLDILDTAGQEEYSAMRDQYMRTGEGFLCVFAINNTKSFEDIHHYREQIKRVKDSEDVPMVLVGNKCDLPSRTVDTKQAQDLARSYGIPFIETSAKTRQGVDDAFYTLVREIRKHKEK
Sequence of KRAS G12C (P62937 whole entry): as the sequence (P62937 whole entry) above
How it was run: as §1

NRAS G12C = NRAS G12C (Homo sapiens, UniProt P01111+P62937, G12C); experiment: as above; assay type: biochemical; settings: NRAS G12C; read-out: NRAS G12C FRET data IC50
Sequence of NRAS G12C (P01111 whole entry G12C): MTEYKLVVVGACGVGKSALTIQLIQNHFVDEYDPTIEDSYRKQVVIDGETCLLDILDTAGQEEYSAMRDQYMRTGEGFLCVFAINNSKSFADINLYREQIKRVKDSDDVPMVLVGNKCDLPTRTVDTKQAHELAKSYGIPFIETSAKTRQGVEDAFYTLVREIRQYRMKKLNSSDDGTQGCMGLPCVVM
Sequence of NRAS G12C (P62937 whole entry): as the sequence (P62937 whole entry) above

KRAS G12V = KRAS G12V (Homo sapiens, UniProt P01116+P62937, G12V); experiment: as above; assay type: biochemical; settings: KRAS G12V; read-out: KRAS G12V FRET data IC50
Sequence of KRAS G12V (P01116 1-169 isoform P01116-2 G12V limits assumed): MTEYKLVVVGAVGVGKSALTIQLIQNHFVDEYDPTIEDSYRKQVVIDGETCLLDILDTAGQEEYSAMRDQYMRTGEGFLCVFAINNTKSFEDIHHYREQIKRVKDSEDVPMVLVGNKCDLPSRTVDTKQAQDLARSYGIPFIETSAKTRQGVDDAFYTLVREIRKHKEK
Sequence of KRAS G12V (P62937 whole entry): as the sequence (P62937 whole entry) above
How it was run: as §1

KRAS G13C = KRAS G13C (Homo sapiens, UniProt P01116+P62937, G13C); experiment: as above; assay type: biochemical; settings: read-out: KRAS G13C FRET data, IC50
Sequence of KRAS G13C (P01116 1-169 isoform P01116-2 G13C): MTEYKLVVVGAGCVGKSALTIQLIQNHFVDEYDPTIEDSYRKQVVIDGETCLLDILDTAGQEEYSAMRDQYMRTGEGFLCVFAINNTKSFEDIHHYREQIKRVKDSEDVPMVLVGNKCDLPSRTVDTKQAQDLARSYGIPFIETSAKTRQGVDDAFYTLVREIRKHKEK
Sequence of KRAS G13C (P62937 whole entry): as the sequence (P62937 whole entry) above
How it was run: as §1

NCI-H358 (K-Ras G12C) = experiment: CellTiter-Glo cell viability assay, 5-day treatment; assay type: cell-based; settings: Homo sapiens, NCI-H358, 120 h, 5-day treatment; read-out: H358 Cell Viability assay data (K-Ras G12C, IC50)
How it was run: (§2)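 Viability is read as luminescence on day 5 after direct compound addition to plated cells, following about 30 minutes' room-temperature equilibration. Each signal is scaled to mean DMSO as 100%.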

Capan-1 (K-Ras G12V) = experiment: as above; assay type: cell-based; settings: Homo sapiens, CAPAN-1, 120 h, 5-day treatment; read-out: Capan-1 Cell Viability assay data (K-Ras G12V, IC50)
How it was run: as §2

Sequence of KRAS WT (P01116 1-169 isoform P01116-2 limits assumed): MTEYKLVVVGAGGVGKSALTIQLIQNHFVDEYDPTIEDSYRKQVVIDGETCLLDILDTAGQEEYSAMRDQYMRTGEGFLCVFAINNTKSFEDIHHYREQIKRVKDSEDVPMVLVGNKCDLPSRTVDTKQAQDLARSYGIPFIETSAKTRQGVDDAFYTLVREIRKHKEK
Sequence of KRAS WT (P62937 whole entry): as the sequence (P62937 whole entry) above

Row | IC50 (KRAS WT) | IC50 (KRAS G12S) | IC50 (KRAS G12D) | IC50 (KRAS G13D) | IC50 (KRAS G12C) | IC50 (NRAS G12C) | IC50 (KRAS G12V) | IC50 (KRAS G13C) | IC50 (NCI-H358 (K-Ras G12C)) | SMILES | IC50 (Capan-1 (K-Ras G12V))
1 | 10 to 100 nM | 10 to 100 nM | 10 to 100 nM | 10 to 100 nM | 10 to 100 nM | 10 to 100 nM | 100 to 1000 nM | 10 to 100 nM | 100 to 1000 nM | CCn1c(-c2cccnc2[C@H](C)OC)c2c3cc(ccc31)-c1cc(O)cc(c1)C[C@H](NC(=O)[C@H](C(C)C)N(C)C(=O)C1NCCC13CC3)C(=O)N1CCC[C@H](N1)C(=O)OCC(C)(C)C2 (some centres unmarked) [Example A228] | 100 to 1000 nM
2 | 1000 to 10000 nM | 1000 to 10000 nM | 1000 to 10000 nM | 1000 to 10000 nM | 1000 to 10000 nM | 1000 to 10000 nM | 1000 to 10000 nM | 1000 to 10000 nM | 100 to 1000 nM | CCn1c(-c2cccnc2[C@H](C)OC)c2c3cc(ccc31)-c1csc(n1)C[C@H](NC(=O)[C@H](C(C)C)N(C)C(=O)[C@@H]1C[C@@H]1C)C(=O)N1CCC[C@H](N1)C(=O)OCC(C)(C)C2 [Example A239] | 100 to 1000 nM
3 | 10 to 100 nM | 100 to 1000 nM | 100 to 1000 nM | 100 to 1000 nM | 10 to 100 nM | 100 to 1000 nM | 100 to 1000 nM | 10 to 100 nM | 100 to 1000 nM | CCn1c(-c2cccnc2[C@H](C)OC)c2c3cc(ccc31)-c1cc(O)cc(c1)C[C@H](NC(=O)[C@H](C(C)C)N(C)C(=O)[C@H]1C[C@H](O)C1)C(=O)N1CCC[C@H](N1)C(=O)OCC(C)(C)C2 [Example A241] | 100 to 1000 nM
4 | 10 to 100 nM | 10 to 100 nM | 10 to 100 nM | 10 to 100 nM | 10 to 100 nM | 10 to 100 nM | 100 to 1000 nM | 10 to 100 nM | 100 to 1000 nM | CCn1c(-c2cccnc2[C@H](C)OC)c2c3cc(ccc31)-c1cc(O)cc(c1)C[C@H](NC(=O)[C@H](C(C)C)N(C)C(=O)[C@H]1CCCNC1)C(=O)N1CCC[C@H](N1)C(=O)OCC(C)(C)C2 [Example A243] | > 10000 nM

The next lines start with the molecule.

Row | SMILES | IC50 (KRAS WT) | IC50 (KRAS G12S) | IC50 (KRAS G12D) | IC50 (KRAS G13D) | IC50 (KRAS G12C) | IC50 (NRAS G12C) | IC50 (KRAS G12V) | IC50 (KRAS G13C) | IC50 (NCI-H358 (K-Ras G12C)) | IC50 (Capan-1 (K-Ras G12V))
5 | CCn1c(-c2cccnc2[C@H](C)OC)c2c3cc(ccc31)-c1cc(O)cc(c1)C[C@H](NC(=O)[C@H](C(C)C)N(C)C(=O)C1NCCC1C(C)C)C(=O)N1CCC[C@H](N1)C(=O)OCC(C)(C)C2 (some centres unmarked) [Example A227] | 100 to 1000 nM and 10 to 100 nM | 100 to 1000 nM and 10 to 100 nM | 100 to 1000 nM and 10 to 100 nM | 10 to 100 nM | 100 to 1000 nM and 10 to 100 nM | 100 to 1000 nM | 100 to 1000 nM and 1000 to 10000 nM | 10 to 100 nM | 1000 to 10000 nM | > 10000 nM
6 | CCn1c(-c2cccnc2[C@H](C)OC)c2c3cc(ccc31)-c1cc(O)cc(c1)C[C@H](NC(=O)[C@H](C(C)C)N(C)C(=O)C1(CO)CC1)C(=O)N1CCC[C@H](N1)C(=O)OCC(C)(C)C2 [Example A232] | 100 to 1000 nM | 100 to 1000 nM | 100 to 1000 nM | 100 to 1000 nM | 100 to 1000 nM | 100 to 1000 nM | 100 to 1000 nM | 100 to 1000 nM | 100 to 1000 nM | 100 to 1000 nM
7 | CCn1c(-c2cccnc2[C@H](C)OC)c2c3cc(ccc31)-c1cc(O)cc(c1)C[C@H](NC(=O)[C@H](C(C)C)N(C)C(=O)[C@H]1CCN(C(=O)OC(C)(C)C)C1)C(=O)N1CCC[C@H](N1)C(=O)OCC(C)(C)C2 [Example A233] | 100 to 1000 nM | 100 to 1000 nM | 100 to 1000 nM | 100 to 1000 nM | 10 to 100 nM | 10 to 100 nM | 10 to 100 nM | 10 to 100 nM | 10 to 100 nM | 10 to 100 nM
8 | CCn1c(-c2cccnc2[C@H](C)OC)c2c3cc(ccc31)-c1csc(n1)C[C@H](NC(=O)[C@H](C(C)C)N(C)C(=O)[C@H]1CCCO1)C(=O)N1CCC[C@H](N1)C(=O)OCC(C)(C)C2 [Example A238] | 1000 to 10000 nM | 1000 to 10000 nM | > 10000 nM | 1000 to 10000 nM | 1000 to 10000 nM | 1000 to 10000 nM | 1000 to 10000 nM | 1000 to 10000 nM | 100 to 1000 nM | 100 to 1000 nM
